Results: paper PMC9775652, “Concomitant Administration of Red Ginseng Extract with Lactic Acid Bacteria Increases the Plasma Concentration of Deglycosylated Ginsenosides in Healthy Human Subjects” (Biomolecules, 2022)

Assays:
LAB [1] = test: Incubation of individual ginsenosides with LAB (metabolic pathway); type: in vitro ADME; settings: individual ginsenoside 10 μM with LAB (1 billion CFU), 7 days; GF2 to CK, CK to PPD, GRg1 to GRh1; result in words
Experimental: (§1) To identify the effects of LAB on ginsenoside metabolism, an in vitro fermentation study was performed according to the method of Jeon et al., with slight modifications. Briefly, RGE (10 mL, 1 pouch) and 2 g LAB (containing 1 billion CFU) were suspended in 10 mL autoclaved MRS broth (550 mg broth powder dissolved in 10 mL water). For the 15 ginsenosides, individual ginsenosides (10 μM each) and 2 g of LAB were suspended in 20 mL of autoclaved MRS broth (550 mg broth powder dissolved in 20 mL water). The mixture was incubated for 7 days in a shaking incubator at 37 °C and 300 rpm, and a 0.1 mL aliquot of the incubation mixture was collected on days 0, 3, 5, and 7. The incubation medium was diluted 100-fold with distilled water and stored at −80 °C to analyze ginsenosides using the LC-MS/MS system.
(§2) To measure the metabolic activity of ginsenosides, the formation rate of ginsenosides (pmol/day) was calculated by dividing the slope of the regression line by the amount of deglycosylated ginsenosides versus the incubation time plot by the initial concentration of individual ginsenosides.

P-gp = target: T1, P-gp (Homo sapiens, UniProt P08183); test: Transport of ginsenosides in P-gp-overexpressing LLC-PK1-P-gp cells; type: in vitro ADME; settings: for efflux ratio at 20 μM / Papp A→B at 20 μM / Papp B→A at 20 μM: pig; for efflux ratio at 20 μM: LLC-PK1, LLC-PK1-P-gp cells, B to A Papp divided by A to B Papp, read-out: ER; for Papp A→B at 20 μM / Papp B→A at 20 μM: LLC-PK1-P-gp cells, mean ± SD, n = 3; for Papp A→B at 20 μM: read-out: A to B permeability; for Papp B→A at 20 μM: read-out: B to A permeability
T1 construct: host or cells: LLC-PK1-P-gp cells (passage no. 25–28)
T1 sequence (P08183 whole entry): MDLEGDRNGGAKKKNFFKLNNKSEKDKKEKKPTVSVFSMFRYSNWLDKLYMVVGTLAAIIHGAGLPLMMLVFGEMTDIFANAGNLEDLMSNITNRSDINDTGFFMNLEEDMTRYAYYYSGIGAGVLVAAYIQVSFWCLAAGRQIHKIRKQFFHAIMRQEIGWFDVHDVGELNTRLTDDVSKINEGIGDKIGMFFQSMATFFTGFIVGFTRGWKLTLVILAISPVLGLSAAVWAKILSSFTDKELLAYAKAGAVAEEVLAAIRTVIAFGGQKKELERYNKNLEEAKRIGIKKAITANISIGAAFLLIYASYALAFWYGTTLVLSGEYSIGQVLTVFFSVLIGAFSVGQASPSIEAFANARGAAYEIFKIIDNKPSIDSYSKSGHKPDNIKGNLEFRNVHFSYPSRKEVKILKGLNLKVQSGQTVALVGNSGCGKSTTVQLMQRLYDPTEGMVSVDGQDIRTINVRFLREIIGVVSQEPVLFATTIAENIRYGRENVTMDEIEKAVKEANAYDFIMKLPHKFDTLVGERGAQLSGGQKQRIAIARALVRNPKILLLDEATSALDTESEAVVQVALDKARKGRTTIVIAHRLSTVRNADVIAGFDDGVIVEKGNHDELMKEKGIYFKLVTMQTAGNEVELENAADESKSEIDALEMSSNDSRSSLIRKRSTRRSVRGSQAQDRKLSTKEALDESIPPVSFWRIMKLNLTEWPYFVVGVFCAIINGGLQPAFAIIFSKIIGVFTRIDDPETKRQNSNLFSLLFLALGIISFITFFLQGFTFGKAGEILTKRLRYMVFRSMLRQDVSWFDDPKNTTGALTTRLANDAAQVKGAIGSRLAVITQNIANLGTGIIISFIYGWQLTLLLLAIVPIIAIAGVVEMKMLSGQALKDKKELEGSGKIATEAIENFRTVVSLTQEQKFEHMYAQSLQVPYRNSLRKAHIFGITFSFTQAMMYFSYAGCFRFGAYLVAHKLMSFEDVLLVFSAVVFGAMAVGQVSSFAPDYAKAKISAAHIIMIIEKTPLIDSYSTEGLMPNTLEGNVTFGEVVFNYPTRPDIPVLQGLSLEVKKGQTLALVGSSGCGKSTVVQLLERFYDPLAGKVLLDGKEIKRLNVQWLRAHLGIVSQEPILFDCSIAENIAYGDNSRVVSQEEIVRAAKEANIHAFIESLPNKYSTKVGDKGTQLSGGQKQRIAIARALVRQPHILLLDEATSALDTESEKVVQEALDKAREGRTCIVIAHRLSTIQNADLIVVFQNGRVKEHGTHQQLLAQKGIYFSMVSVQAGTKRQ
Experimental: (§3) LLC-PK1-P-gp cells (passage no. 25–28) were seeded onto collagen-coated permeable support (1.0 μm pore size) in 24-well plates at a density of 2.5 × 10^4 cells/insert and grown for 5 days with TEER values of over 500 Ω·cm^2 [24]. The A to B transport and B to A transport of GRg3, GRh2, CK, PPD, GRg1, GRh1, and PPT (20 μM each) were measured as previously described. The concentration dependency in the B to A transport of GRh2, CK, PPD, and PPT was measured in the range of 6.25–200 μM for GRh2, CK, PPD, and PPT.
(§4) For the transport study of ginsenosides in CaCo-2 cells and LLC-PK1-P-gp cells, the ginsenoside transport rate in the A to B or B to A directions was calculated from the slope of the regression line from the mean transported amounts versus time plot. The apparent permeability (Papp) was calculated using Equation (1). (1) Papp (×10^−6 cm/s)=transport rate (nmol/min)/concentration(μM)×area(cm^2)×60s
(§5) The efflux ratio was calculated by dividing the Papp of ginsenosides from the B to A direction by that from the A to B direction.
(§6) To measure the kinetic parameters of the concentration dependence on the P-gp-mediated ginsenoside efflux, the ginsenoside transport rate in the B to A direction (ν) versus the ginsenoside concentration (S) plot was fitted in the Michaelis–Menten Equation (2) using Sigma Plot (version 12.0, Systat Software Inc. Chicago, IL, USA). (2) ν=Vmax×S/Km+S

LAB [2] = test: In vitro RGE fermentation with LAB; type: in vitro ADME; settings: RGE incubated with LAB (1 billion CFU) for 7 days at 37 °C; result in words
Experimental: as §1, §2

[3] = Transport (permeability) of ginsenosides in CaCo-2 cell monolayers; type: in vitro ADME; settings: human
Experimental: CaCo-2 cells (passage no 41–43) were seeded onto collagen-coated permeable support (1.0 μm pore size) in a 24-well plate at a density of 2.5 × 10^4 cells/insert and cultured for 21 days in Dulbecco’s modified eagle’s medium supplemented with 10% fetal bovine serum, 1% non-essential amino acids, and 1% penicillin-streptomycin at 37 °C in a humidified atmosphere (5% CO2/95% air). After confirming that the transepithelial electrical resistance (TEER) of the CaCo-2 cell monolayer was over 400 Ω·cm^2, Apical to basal (A to B) transport and B to A transport of ginsenosides using 50 µM, GRb1 was investigated as previously described. The same permeability study was performed using 50 µM GRb2, GRc, GRd, GRg3, GRh2, GF2, CK, PPD, GRe, GRf, GRg1, GRh1, GF1, or PPT.
as §4, §5

[4] = parameters: method as in PMID 34575573; settings: mice, LAB supplementation (Lacto-fit) for two weeks; cited from earlier work
[5] = rat, in vivo, po; cited from earlier work
[6] = Pharmacokinetic study of ginsenosides in healthy humans after repeated oral RGE with or without LAB; type: in vivo, human; settings: male, human, in vivo, po
Experimental: A single-sequence study consisting of two periods was conducted on five healthy male subjects (body weight > 50 kg and age > 19 years) for 29 days. During the first period of the study (RGE treatment group), three pouches of RGE (30 mL, 104.1 mg of total ginsenosides) were administered to 5 subjects once daily for 14 days. On the 14th day, the subjects were admitted to the Clinical Trial Center of KNUH at 7 AM and underwent the last RGE administration at approximately 8–9 AM. Blood samples (approximately 3 mL) were collected at 0, 4, 6, 8, 10, 12, 13, 14, and 24 h after the last dose. A saline-locked angiocatheter was placed on the forearm of each subject’s hand. After discarding 1 mL of blood derived from the catheter, 3 mL of blood was drawn into a vacutainer tube containing heparin and centrifuged at 3000× g for 10 min. The supernatant plasma samples were stored at −80 °C until ginsenoside analysis.
In the second half of the study (RGE + LAB treatment group), 3 pouches of RGE (30 mL, 104.1 mg of total ginsenosides) and 1 pouch of LAB (1 billion CFU/2 g) were co-administered once daily for 14 days. On the […], the subjects were admitted to the Clinical Trial Center of KNUH at 7 AM and received the last red ginseng dose at approximately 8–9 AM. Blood samples (approximately 3 mL) were withdrawn at 0, 4, 6, 8, 10, 12, 13, 14, and 24 h intervals after the last dose and centrifuged at 3000× g for 10 min; the supernatant plasma samples were stored at −80 °C.
Briefly, to analyze GRb1, GRb2, GRc, GRd, GRe, GRf, GRg1, GRg3, GF1, and GF2, 400 μL of an internal standard (IS; 0.05 ng/mL berberine in methanol) was added to 100 μL of plasma. The mixture was vortexed for 15 min and centrifuged at 16,000× g for 5 min. After centrifugation, 400 μL of the supernatant was evaporated using a speed-dry vacuum concentrator (Christ, Osterode am Harz, Germany). The residue was reconstituted using 200 μL of 70% methanol supplemented with 0.1% formic acid, and a 10 μL aliquot was injected into the LC-MS/MS system. Chromatographic separation was performed using a Polar RP column (150 × 2.0 mm, 4.0 μm particle size; Phenomenex, Torrance, CA, USA) using a mobile phase consisting of 0.1% formic acid in water (phase A) and 0.1% formic acid in methanol (phase B). The following elution gradient was used: 69% of phase B for 0–2.0 min, 69–85% of phase B for 2.0–4.0 min, and 85–69% of phase B for 6.0–6.5 min. The flow rate was 0.27 mL/min.
The mixture was vortexed for 10 min and centrifuged at 16,000× g for 5 min. After centrifugation, the samples were frozen at −80 °C for 4 h. The upper layer was transferred to a clean tube and evaporated. The residue was reconstituted using 200 μL of 80% methanol supplemented with 0.1% formic acid, and a 10 μL aliquot was injected into the LC-MS/MS system. Chromatographic separation was performed using a Luna C18 column (150 × 2.0 mm, 3.0 μm particle size; Phenomenex, Torrance, CA, USA) and using a mobile phase consisting of water containing 0.1% formic acid: methanol containing 0.1% formic acid = 8:92 (v/v) at a flow rate of 0.15 mL/min.
The quantification of ginsenosides was carried out using multiple reaction monitoring in positive ionization mode, as previously described.
Finally, pharmacokinetic parameters were calculated using non-compartmental methods (WinNonlin version 5.1; Pharsight Co., Certara, NJ, USA). Statistical analysis was performed by Student’s t-test to compare the two groups using IBM SPSS Statistics for Windows (version 25.0; IBM Corp., Armonk, NY, USA). Differences were considered significant at p < 0.05.

[7] = system: T2, CC(C)=CCCC(C)(O)C1CCC2(C)C1C(O)CC1C3(C)CCC(O)C(C)(C)C3C(O)CC12C; test: Transport of ginsenosides in P-gp-overexpressing LLC-PK1-P-gp cells; type: in vitro ADME; settings: other: B to A transport rate in LLC-PK1-P-gp cells, 6.25–200 μM, Michaelis–Menten fit
T2 construct: host or cells: LLC-PK1-P-gp cells (passage no. 25–28)
Experimental: as §3, §4, §5, §6

[8] = system: T3, CC(C)=CCCC(C)(O)C1CCC2(C)C1C(O)CC1C3(C)CCC(O)C(C)(C)C3CCC12C; test: as above; type: in vitro ADME; settings: other: B to A transport rate in LLC-PK1-P-gp cells, 6.25–200 μM, Michaelis–Menten fit
T3 construct: host or cells: LLC-PK1-P-gp cells (passage no. 25–28)
Experimental: as §3, §4, §5, §6

[9] = system: T4, CC(C)=CCCC(C)(OC1OC(CO)C(O)C(O)C1O)C1CCC2(C)C1C(O)CC1C3(C)CCC(O)C(C)(C)C3CCC12C; test: as above; type: in vitro ADME; settings: other: B to A transport rate in LLC-PK1-P-gp cells, 6.25–200 μM, Michaelis–Menten fit
T4 construct: host or cells: LLC-PK1-P-gp cells (passage no. 25–28)
Experimental: as §3, §4, §5, §6

[10] = system: T5, [H][C@@]1(O[C@H]2CC[C@]3(C)[C@@]4([H])C[C@@H](O)[C@]5([H])[C@@]([H])([C@@](C)(O)CCC=C(C)C)CC[C@@]5(C)[C@]4(C)CC[C@@]3([H])C2(C)C)O[C@H](CO)[C@@H](O)[C@H](O)[C@H]1O; test: as above; type: in vitro ADME; settings: other: B to A transport rate in LLC-PK1-P-gp cells, 6.25–200 μM, Michaelis–Menten fit
T5 construct: host or cells: LLC-PK1-P-gp cells (passage no. 25–28)
Experimental: as §3, §4, §5, §6

## CC(C)=CCCC(C)(OC1OC(CO)C(O)C(O)C1O)C1CCC2(C)C1C(O)CC1C3(C)CCC(O)C(C)(C)C3C(OC3OC(CO)C(O)C(O)C3O)CC12C (stereo not drawn) [GRg1]
LAB [1]
  LAB-mediated deglycosylation (formation of deglycosylated ginsenoside from the incubated ginsenoside): the highest
P-gp
  efflux ratio at 20 μM: 1
  Papp A→B at 20 μM: 0.1 ± 0.02 ×10⁻⁶ cm/s
  Papp B→A at 20 μM: 0.1 ± 0.03 ×10⁻⁶ cm/s
LAB [2]
  Relative abundance / metabolic activity following fermentation of RGE with LAB: marked decrease
[3]; CaCo-2 cell monolayers, 50 µM ginsenoside, read-out: A to B Papp
  Papp A→B at 50 µM: < 0.3 ×10⁻⁶ cm/s

## CC(C)=CCCC(C)(O)C1CCC2(C)C1C(O)CC1C3(C)CCC(O)C(C)(C)C3CCC12C (stereo not drawn) [PPD, 20(s)-protopanaxadiol]
[4]
  AUC fold increase with LAB supplementation compared to control groups: 2.67 fold
P-gp; P-gp-mediated B to A transport in LLC-PK1-P-gp cells
  CLint (intrinsic clearance): 5.2 µL/min
P-gp
  efflux ratio at 20 μM: 3.3
  Papp A→B at 20 μM: 0.13 ± 0.01 ×10⁻⁶ cm/s
  Papp B→A at 20 μM: 0.42 ± 0.04 ×10⁻⁶ cm/s
[5]
  Oral BA: 36.8–48.1%
  Oral bioavailability (BA): 36.8–48.1%
[6]; 104.1 mg
  AUC: 130 ± 39.9 ng·h/mL
[6]; Cmax
  Cmax: 7.6 ± 1.7 ng/mL
[6]; MRT
  MRT: 18.6 ± 5 h
[6]; Tmax
  Tmax: 16 ± 18.5 h
LAB [2]
  Relative abundance / metabolic activity following fermentation of RGE with LAB: significantly increased
[3]; Caco-2, Efflux ratio (ER)
  efflux ratio at 50 µM: 2.7

## P-gp (Homo sapiens)
[7]
  Km: 83 µM
  Vmax: 19.2 nmol/min
[8]
  Km: 76 µM
  Vmax: 0.40 nmol/min
[9]
  Km: 98 µM
  Vmax: 67.7 nmol/min
[10]
  Km: 151 µM
  Vmax: 75.9 nmol/min
